# Where two headings read alike, the source gives them in different places.
# Tests used:
# [1] = test system: NFAT; experiment: NFAT luciferase reporter assay in HEK 293 NFAT cell line expressing DYRK1A; assay type: cell-based; settings: various concentrations, 30 min, then ionomycin/PMA 5 h
# Protocol: The Renilla luciferase reporter assay was performed in HEK 293 NFAT cell line, constitutively expressing DYRK1A, NFAT and Renilla luciferase under the control of an NFAT-RE promoter. The cells were seeded at 10,000 per well in 96-well white plates (Cellstar, Greiner; Burlington, MA, United States). The following day cells were incubated with the indicated concentration of inhibitor for 30 min, then the medium was changed, and cells were stimulated with 1 μM ionomycin and 10 nM PMA for 5 h. Next, the cell lysate was harvested to measure luciferase activity with Renilla-Glo Luciferase Assay System (Promega, Wisconsin, United States). All experiments were carried out in triplicates.
# [2] = test system: INS-1E cells; experiment: MTT cytotoxicity and cell survival assay, INS-1E; assay type: cell-based, rat; settings: 24 h, 0 to 100 μM
# [3] = test system: DYRK1A in MIN6 cell line; experiment: DYRK1A expression by flow cytometry and confocal imaging; assay type: cell-based, mouse
# Protocol: (§1) The presence of insulin, glucagon, C-peptide, Ki67, and DYRK1A was assessed in MIN6 and INS-1E pancreatic cell lines. Before imaging, cells were seeded onto slides at a density of 1 × 10^5 cells and maintained at 37 °C in 95% atmospheric air and 5% CO2 in a humidified atmosphere for 24 h. After washing with fresh medium, cells were incubated with 5 µM inhibitor solution for 24 h. After this time, the solution was replaced with a culture medium for another 48 h. The cells were fixed. Then after washing and permeabilization, they were incubated with specific antibodies diluted in PBS. Next, the cells were incubated for 10 min with Hoechst33342 (Sigma-Aldrich). After incubation, at 37 °C, in the dark, the cells were washed twice with HBSS (Gibco), the slide was transferred to a microscope table, and the cells were visualized under a Zeiss LSM 880 confocal microscope (Carl Zeiss, Jena, Germany) with a 63× immersion objective. Images were analyzed by Zeiss ZEN Software.
# (§2) The presence of insulin, glucagon, C-peptide, Ki67 and DYRK1A was assessed in MIN6 and INS-1E pancreatic cell lines. Before analysis, cells were seeded onto slides at a density of 1 × 10^5 cells and maintained at 37 °C in 95% atmospheric air and 5% CO2 in a humidified atmosphere for 24 h. After washing with fresh medium, cells were incubated with 5 µM inhibitor solution for 24 h. After this time, the solution was replaced with a culture medium for another 48 h. The cells were then detached from the plate using trypsin. The cells were fixed. Then after washing and permeabilization, they were incubated with specific antibodies diluted in PBS. Cells were analyzed with BDAccuri flow cytometer and calculated using FlowJo software (Ashland, Oregon-based FlowJo LLC, a subsidiary of Becton Dickinson).
# [4] = test system: INS-1E and MIN6 cells; experiment: GSIS and insulin, C-peptide, glucagon staining (flow cytometry, confocal); assay type: cell-based, rat, mouse; parameters: key to insulin+ / glucagon+ / C-peptide+: ↑: moderate; ↑↑: most potent
# Protocol: Cells were cultured in a low glucose medium (5.5 mM) for 24 h. After this medium was changed to lower glucose medium (2 mM) for 2 h and then for high glucose medium (25 mM) for 30 min, media were harvested and/or cells were used for further analysis.
# as §1, §2
# [5] = test system: hiPSC-derived pancreatic organoids; experiment: Insulin secretion assay in hiPSC-derived β-cell organoids (ELISA); assay type: cell-based, human; parameters: key to insulin secretion (ELISA): ↑: moderate; ↑↑: most potent
# Protocol: Differentiation of hiPSC into iPSC-derived β-cell islets was carried out following the protocol established by Pellegrini et al. for pluripotent stem cells with slight modifications. A day before differentiation, 800,000 cells were seeded on coated with Geltrex (Gibco) 12 wells plate in Essential 8 medium (Gibco) with Y-27632 10 µM (Abcam). The following culture media were used for differentiation:
# M1 medium: MCDB131 (Gibco) + 8 mM D-(þ)-Glucose (Sigma) + 1.23 g/L NaHCO3 (Sigma) + 2% BSA (Sigma) + 0.25 mM Vitamin C (Sigma) + 1% Pen/Strep (Lonza, Basel, Switzerland) + 1% L-glutamine (Lonza);
# M2 medium: MCDB131 + 20 mM D-Glucose + 1.754 g/L NaHCO3 + 2% BSA + 0.25 mM Vitamin C + Heparin 10mg/mL (Sigma) + 1% Pen/Strep + 1% L-glutamine. All media were filter-sterilized through a 0.22 µm bottle top filter (Corning, New York, NY, USA). For sequential culture medium changes, small molecules and growth factors were added to the base media immediately before daily exchange. Media switches were as follows: days 0–3: STEMdiff™ Definitive Endoderm Kit ([…], Vancouver, Canada) used following manufacturer instructions; days 4–6: M1 medium + 50 ng/mL KGF (Peprotech, London, UK) + 1:50,000 ITS-X (Invitrogen, Carlsbad, CA, USA); days 7–8: M1 medium + 50 ng/mL KGF + 0.25 µM Sant1 (Sigma) + […] Retinoic acid (RA) (Sigma) + 500 nM PdBU (Millipore, Berlington, MA, United States) + 1:200 ITS-X + 200 nM LDN193189 (only Day 7) (Sigma); days 9–13: M1 medium + 50 ng/mL KGF + 0.25 µM Sant1 + 100 nM RA + 1:200 ITS-X; days 14–18: M2 medium + 0.25 µM Sant1 + 100 nM RA + 1 µM XXI (Millipore) + 10 µM Alk5i II (Selleckchem, Munich, Germany) + 1 µM L-3,30,5-Triiodothyronine (T3) (Sigma) + 20 ng/mL Betacellulin (R&D, Minneapolis, MN, USA) + 1:200 ITS-X.
# (§3) The Insulin ELISA (Ultra Sensitive) was used to quantify insulin levels in control and treated organoids and isolated islets from the mouse pancreas (Crystal Chem, Downers Grove, IL, USA). Islets were homogenized in lysis buffer. Obtained buffer lysates and medium samples (after GSIS) were analyzed for total protein level and subsequently processed following the manufacturer’s protocol.
# [6] = test system: isolated mouse islets; experiment: Insulin secretion assay in isolated mouse islets (ELISA, immunostaining); assay type: cell-based; parameters: key to insulin secretion (ELISA): ↑: moderate; ↑↑: most potent; settings: Table 2, Isolated islets
# Protocol: as §3
# Mice (male, initially 12 weeks old) were sacrificed by cervical vertebral dislocation. Before starting the incision, their bodies were sprayed with 70% EtOH. A hemostatic clamp was placed on both sides of the small intestine, leaving a small pocket to absorb the collagenase solution into the intestine. Next, 3 mL of cold collagenase solution was introduced into the pancreas through the bile duct. The pancreas was removed from the body and placed in a falcon tube containing 2 mL of collagenase solution. The tube was placed in a water bath at 37 °C. It was incubated for 13 min. At the end of this time, the falcon was shaken vigorously. The collagenase was inactivated with FBS. The sample was centrifuged for 30 s (300× g). This step was repeated 3 times. HBSS was then added to the sample and centrifuged two more times at the same speed as before. After the last centrifugation, HBSS was removed and Percoll (1.045 g/mL) (Sigma-Aldrich) was added. The Percoll solution was left to sediment for 5 min. After this time, the islets were collected from the bottom of the falcon. The step was repeated 3 times. Finally, islets were cultured in RPMI-1640 (Pan Biotech) supplemented with 2 mM L-glutamine (Gibco), 10% fetal bovine serum (FBS) and 1% penicillin/streptomycin and the culture medium was changed daily.
# The presence of insulin, C-peptide, glucagon, Pdx-1 and Nkx6.1 was assessed in isolated mouse islets. Islets were fixed in PFA (3.8%) for 30 min, washed with PBS and 0.15% Triton X-100 was added for 1.5 h, then washed again with PBS and samples were transferred to 1% BSA + 0.05% Triton X-100 solution for 3 h. After this time, islets were incubated with primary antibody for 12 h at 4 °C. The secondary antibody was then added for 3 h. Next, the islets were incubated for 10 min with Hoechst33342. After incubation, at 37 °C, in the dark, the samples were washed twice with HBSS, the slide was transferred to a microscope table and the cells were visualized under a Zeiss LSM 880 confocal microscope (Carl Zeiss, Jena, Germany) with a 63× immersion objective. Images were analyzed by Zeiss ZEN Software.
# [7] = test system: adult human pancreatic beta cells; parameters: method as in PMID 34335466; settings: cited from earlier work
# [8] = test system: INS-1E and MIN6 cells; experiment: MTT cytotoxicity and cell survival assay, β-cell lines; settings: Table 2, Cell lines
# [9] = biological target: T1, DYRK1A kinase domain (Homo sapiens, UniProt Q13627); experiment: MST direct binding assay; settings: MST direct binding, 20 nM fluorescent-labelled DYRK1A kinase domain
# T1 construct: kinase domain of DYRK1A (126–490) was cloned into pET24a with C-terminal His-tag; made in house; host or cells: E. coli BL21 (DE3) RIL
# [10] = biological target: T2, DYRK1A (Homo sapiens, UniProt Q13627); experiment: Cook activity assay (ATP regenerative NADH consuming DYRK1A activity assay); assay type: biochemical; settings: Cook assay
# T2 construct: kinase domain of DYRK1A (126–490) was cloned into pET24a with C-terminal His-tag; His-tag (C); made in house; host or cells: E. coli BL21 (DE3) RIL
# [11] = test system: INS-1E and MIN6 cells; experiment: Ki67 proliferation analysis; assay type: cell-based, rat, mouse
# [12] = biological target: T2, DYRK1A; settings: cited from earlier work
# [13] = test system: mTOR; settings: cited from earlier work
# [14] = DYRK1A 0.5 µM, ATP 128 µM, DYRKtide 1 mM
compound,measurement,setting,value
"COc1ccc2c(c1)[nH]c1c(C)nccc12 [Harmine, reference compound]",NFAT-controlled luciferase activity,[1],induced NFAT-controlled luciferase activity in a dose-dependent manner
same,effect on viability of INS-1E cells,[2],did not show adverse effects
same,"DYRK1A (fluorescence-positive cells, flow cytometry)","[3]; MIN6, 24 h with inhibitor, control 74%",27.7%
same,DYRK1A signal in confocal imaging,"[3]; MIN6, vs untreated control",reduced
same,insulin/C-peptide secretion,"[4]; GSIS, compound alone",enhanced insulin secretion and increases C-peptide levels
same,C-peptide+,"[4]; Table 2, Cell lines",↑
same,glucagon+,"[4]; Table 2, Cell lines",↑↑
same,insulin+,"[4]; Table 2, Cell lines",↑
same,insulin release,"[5]; GSIS, compared with untreated control cells",markedly increased insulin release
same,insulin secretion (ELISA),"[5]; Table 2, hiPSC",↑↑
same,insulin secretion (ELISA),[6],↑
same,increase in proliferation,[7],2–4%
same,toxicity,[8],no
"NS(=O)(=O)c1ccc(-c2cnc3[nH]cc(-c4cccnc4)c3c2)cc1 [AC12, 4-(3-(pyridin-3-yl)-1H-pyrrolo[2,3-b]pyridin-5-yl)benzenesulfonamide]",Kd,[9],380 ± 60 nM
same,Ki,[10]; [14],100 ± 30 nM
same,Ki,[10]; phosphorylation of substrate peptide,< 200 nM
"COc1ccc(N)cc1-c1cnc(N)c(C(=O)c2cccnc2)n1 [AC22, (3-azanyl-6-(5-azanyl-2-methoxy-phenyl)pyrazin-2-yl)-pyridin-3-yl-methanone]",Kd,[9],2600 ± 400 nM
same,Ki,[10]; [14],1600 ± 400 nM
same,NFAT-controlled luciferase activity,[1],induced NFAT-controlled luciferase activity in a dose-dependent manner
same,induction of β-cell proliferation (Ki67 labeling of insulin-labeled cells),"[11]; 5 μM, vs untreated cells",most potent in inducing β-cell proliferation
same,IC50,"[12]; DYRK1A, Figure 1, ref Czarna et al. [44]",> 6000 nM
same,Ki,"[12]; Table S1, Cook assay, data previously reported, ref 1 (Czarna et al. 2018)",> 2800 nM
C=CC(=O)Nc1cccc(C(=O)c2sc(Nc3ccc(N4CCN(C)CC4)cc3)nc2N)c1 [AC28],Kd,[9],27000 ± 17000 nM
same,Ki,[10]; [14],3000 ± 1000 nM
same,NFAT-controlled luciferase activity,[1],did not promote NFAT-activity
"Nc1ccc(-c2ccc3ncc4ccc(=O)n(-c5cccc(C(F)(F)F)c5)c4c3c2)cn1 [Torin2, 9-(6-Aminopyridin-3-yl)-1-(3-(trifluoromethyl)phenyl) benzo [h][1, 6] naphthyridin-2 (1 H)-one, reference compound]",NFAT-controlled luciferase activity,[1],did not promote NFAT-activity
same,potency towards mTOR compared to AC27,[13],40 times
"Cc1cccc(-c2n[nH]cc2-c2ccc3ncccc3n2)n1 [RepSox, 2-(3-(6-Methyl-2-pyridinyl)-1H-pyrazol-4-yl)-1,5-naphthyridine, reference compound]",effect on cell proliferation,[11]; TGF-β inhibitor alone,did not affect cell proliferation
"C=CC(=O)Nc1ccc(C(=O)c2sc(Nc3ccc(N4CCN(C)CC4)cc3OC)nc2N)cc1 [AC25, N-(4-((4-azanyl-2-((2-methoxy-4-(4-methylpiperazin-1-yl)phenyl)amino)-1,3-thiazol-5-yl)carbonyl)phenyl)propenamide]",Kd,[9],1100 ± 600 nM
same,Ki,[10]; [14],1000 ± 300 nM
same,NFAT-controlled luciferase activity,[1],did not promote NFAT-activity
"CN1C(=O)[C@H]2CCC[C@H]2N(C2CCCC2)c2nc(Nc3ccc(C(N)=O)cc3)ncc21 [AC23, 4-(((6aS,9aR)-10-cyclopentyl-5-methyl-6-oxo-5,6,6a,7,8,9,9a,10-octahydrocyclopenta[e]pyrimido[5,4-b][1, 4]diazepin-2-yl)amino)benzamide]",Kd,[9],12900 ± 2600 nM
same,Ki,[10]; [14],1200 ± 400 nM
same,NFAT-controlled luciferase activity,[1],induced NFAT-controlled luciferase activity in a dose-dependent manner

# Reference: article PMC8467532, “DYRK1A Kinase Inhibitors Promote β-Cell Survival and Insulin Homeostasis” (Cells, 2021)
